Test results from patent US8084586B2, “Doxorubicin immunoassay” (Saladax Biomedical, Inc., priority 2005, dated 2011).

Legend:
[1] = test system: monoclonal antibody to doxorubicin [4]-KLH (Immunogen Example 3b, Example 7); experiment: Indirect competitive microtiter plate ELISA, cross-reactivity, monoclonal antibody from doxorubicin [4]-KLH immunogen (Example 3b); type: binding, mouse (BALB/c); settings: relative to doxorubicin
Method: (§1) Two groups of ten Female BALB/c mice were immunized i.p. one with 100 μg/mouse of doxorubicin [4]-BTG immunogen prepared in Example 3a and the other with 100 μg/mouse of doxorubicin [4]-KLH immunogen prepared in Example 3b emulsified in Complete Freund's adjuvant. The mice were boosted once four weeks after the initial injection with 100 μg/mouse of the same immunogens emulsified in Incomplete Freund's Adjuvant. Ten days after the boost test bleeds from each mouse were obtained by orbital bleed. For monoclonal antibodies depending on the immunogen, age and rest period of the mouse starting four days before the fusion, the mice were injected i.p. with either 400 μg (3 days before fusion), 200 μg (2 days before fusion), and […] (1 day before fusion) of doxorubicin [4]-BTG immunogen prepared in Example 3a in PBS or 100 ug on each day of doxorubicin [4]-KLH immunogen prepared in Example 3b in PBS on three successive days. According to the protocol of Coligan et al. spleen cells were isolated from the selected mice and fused with 2×10^7 cells of the myeloma fusion partner cell line (SP2/0) using 50% polyethylene glycol 1500 [Coligan, J. E. et al., eds., Current Protocols in Immunology, 2.5.1-2.5.8, (1992), Wiley & Sons, NY.] To grow the fused cells into antibody producing colonies according to the method of Coligan et al. the fused cells were plated on 10 96-well plates in a conventional HAT (hypoxanthine, aminopterin and thymidine) selective growth medium such as DMEM/F12 (Dulbecco's Modified Eagle's Medium 1:1 with L-glutamine and HEPES) supplemented with 20% fetal bovine serum alternative, and containing 2% L-glutamine (100 mM) and 2% 50× HAT. Two weeks later, the hybridoma supernatant was assayed for the presence of anti-doxorubicin antibodies by ELISA as described in Example 10b. Positive wells were expanded and again screened by the same method. The positive clones were confirmed for doxorubicin binding by a competitive ELISA as described in Example 11 or subcloned directly. Clones positive by ELISA were subcloned once or twice by limiting dilution according to the method disclosed in Coligan, J. E. et al., eds., Current Protocols in Immunology, 2.5.8-2.5.17, (1992), Wiley & Sons, NY.
(§2) For the purpose of screening antibodies and measuring doxorubicin concentration by the Enzyme-Linked Immunosorbent Assay (ELISA) method polystyrene microtiter plates (Nunc MaxiSorp F8 Immunomodules) optimized for protein binding and containing 96 wells per plate were used. Each well was coated with doxorubicin [5]-BSA 3:1 conjugate (prepared as in Example 6b) by adding 300 μL of doxorubicin [1]-BSA conjugate at 10 μg/mL in 0.01 M MES, pH=6, and incubating for three hours at room temperature. The wells were washed with 0.005 M MES, pH 6 and then were blocked with 375 μL of 5% sucrose, 0.2% sodium caseinate solution for 30 minutes at room temperature. After removal of the post-coat solution the plates were dried at 37° C. overnight.
as §2, with “[1]-BSA 1:1” for “[5]-BSA 3:1”, “6c)” for “6b)”, “[5]-BSA” for “[1]-BSA”
For the purpose of screening antibodies and measuring doxorubicin concentration by the Enzyme-Linked Immunosorbent Assay (ELISA) method polystyrene microtiter plates (Nunc MaxiSorp F8 Immunomodules) optimized for protein binding and containing 96 wells per plate were used. […]

[2] = test system: monoclonal antibody to doxorubicin [4]-BTG (Immunogen Example 3a, Example 7); experiment: Indirect competitive microtiter plate ELISA, cross-reactivity, monoclonal antibody from doxorubicin [4]-BTG immunogen (Example 3a); type: binding, mouse (BALB/c); settings: relative to doxorubicin
Method: as §1
as §2, with “The wells were washed with 0.005 M MES, pH 6 and then were blocked with 375 μL of 5% sucrose, 0.2% sodium caseinate solution for 30 minutes at room temperature. After removal of the post-coat solution the plates were dried at 37° C. overnight.” left out

[3] = test system: antibodies to doxorubicin [5]-KLH (Immunogen Example 4b, Example 8); experiment: Indirect competitive microtiter plate ELISA, cross-reactivity, antiserum from doxorubicin [5]-KLH immunogen (Example 4b); type: binding, mouse (BALB/c); settings: relative to doxorubicin
Method: Mice were boosted once four weeks after the initial injection with 100 μg/mouse of the same immunogens emulsified in Incomplete Freund's Adjuvant. Ten and 28 days after the boost test bleeds from each mouse were obtained by orbital bleed. The anti-serum from the day 28 test bleeds contained doxorubicin antibodies evaluated in Examples 10a and 11. […] For the purpose of screening antibodies and measuring doxorubicin concentration by the Enzyme-Linked Immunosorbent Assay (ELISA) method polystyrene microtiter plates (Nunc MaxiSorp F8 Immunomodules) optimized for protein binding and containing 96 wells per plate were used. […] The wells were washed with 0.005 M MES, pH 6 and then were blocked with 375 μL of 5% sucrose, 0.2% sodium caseinate solution for 30 minutes at room temperature. After removal of the post-coat solution the plates were dried at 37° C. overnight. For the purpose of screening antibodies and measuring doxorubicin concentration by the Enzyme-Linked Immunosorbent Assay (ELISA) method polystyrene microtiter plates (Nunc MaxiSorp F8 Immunomodules) optimized for protein binding and containing 96 wells per plate were used. […] The wells were washed with 0.005 M MES, pH 6 and then were blocked with 375 μL of 5% sucrose, 0.2% sodium caseinate solution for 30 minutes at room temperature. After removal of the post-coat solution the plates were dried at 37° C. overnight. For the purpose of screening antibodies and measuring doxorubicin concentration by the Enzyme-Linked Immunosorbent Assay (ELISA) method polystyrene microtiter plates (Nunc MaxiSorp F8 Immunomodules) optimized for protein binding and containing 96 wells per plate were used. […] Following the incubation for color development, 50 μL of stop solution (1.5% sodium fluoride in di H2O) was added to each well to stop the color development and after 10 seconds of shaking the absorbance was determined at 650 nm with a 96-well plate reader. The amount of antibody in a well was proportional to the absorbance measured and was expressed as the dilution (titer) resulting in an absorbance of 1.5. Titers were determined by graphing log antibody dilution of the antibody measured (x-axis) vs. absorbance 650 nm (y-axis) and extrapolating the titer at an absorbance of 1.5. The titer determined the concentration (dilution) of antibody used in the indirect competitive Microtiter plate assay described in Example 11. Doxorubicin concentrations were measured by an indirect competitive Enzyme-Linked Immunosorbent Assay (ELISA) method This method for measuring doxorubicin concentrations was performed with the microtiter plates that were sensitized with doxorubicin [1]-BSA described in Examples 9b, c, d. […]

[4] = test system: antibodies to doxorubicin [5]-BTG (Immunogen Example 4a, Example 8); experiment: Indirect competitive microtiter plate ELISA, cross-reactivity, antiserum from doxorubicin [5]-BTG immunogen (Example 4a); type: binding, mouse (BALB/c); settings: relative to doxorubicin
Method: Mice were boosted once four weeks after the initial injection with 100 μg/mouse of the same immunogens emulsified in Incomplete Freund's Adjuvant. Ten and 28 days after the boost test bleeds from each mouse were obtained by orbital bleed. The anti-serum from the day 28 test bleeds contained doxorubicin antibodies evaluated in Examples 10a and 11. […] For the purpose of screening antibodies and measuring doxorubicin concentration by the Enzyme-Linked Immunosorbent Assay (ELISA) method polystyrene microtiter plates (Nunc MaxiSorp F8 Immunomodules) optimized for protein binding and containing 96 wells per plate were used. […] The wells were washed with 0.005 M MES, pH 6 and then were blocked with 375 μL of 5% sucrose, 0.2% sodium caseinate solution for 30 minutes at room temperature. After removal of the post-coat solution the plates were dried at 37° C. overnight. […] The wells were washed with 0.005 M MES, pH 6 and then were blocked with 375 μL of 5% sucrose, 0.2% sodium caseinate solution for 30 minutes at room temperature. After removal of the post-coat solution the plates were dried at 37° C. overnight. For the purpose of screening antibodies and measuring doxorubicin concentration by the Enzyme-Linked Immunosorbent Assay (ELISA) method polystyrene microtiter plates (Nunc MaxiSorp F8 Immunomodules) optimized for protein binding and containing 96 wells per plate were used. […] The wells were washed with 0.005 M MES, pH 6 and then were blocked with 375 μL of 5% sucrose, 0.2% sodium caseinate solution for 30 minutes at room temperature. After removal of the post-coat solution the plates were dried at 37° C. overnight. Antibodies were screened by Enzyme-Linked Immunosorbent Assay (ELISA) method. […] During this incubation antibody binds to the doxorubicin [5]-conjugate in the well. […] After an incubation of 10 minutes at room temperature with shaking, during which the goat anti-mouse antibody—HRP enzyme conjugate binds to doxorubicin antibodies in the wells, the plates were again washed three times to remove unbound goat anti-mouse antibody—HRP enzyme conjugate. To develop a measurable color in the wells washing was followed by the addition of 100 μL of TMB (TMB Liquid Substrate), a substrate for HRP, to develop color during a 10 minute incubation with shaking at room temperature. Following the incubation for color development, 50 μL of stop solution (1.5% sodium fluoride in di H2O) was added to each well to stop the color development and after 10 seconds of shaking the absorbance was determined at 650 nm with a 96-well plate reader. The amount of antibody in a well was proportional to the absorbance measured and was expressed as the dilution (titer) resulting in an absorbance of 1.5. Titers were determined by graphing log antibody dilution of the antibody measured (x-axis) vs. absorbance 650 nm (y-axis) and extrapolating the titer at an absorbance of 1.5. The titer determined the concentration (dilution) of antibody used in the indirect competitive Microtiter plate assay described in Example 11. Doxorubicin concentrations were measured by an indirect competitive Enzyme-Linked Immunosorbent Assay (ELISA) method This method for measuring doxorubicin concentrations was performed with the microtiter plates that were sensitized with doxorubicin [1]-BSA described in Examples 9b, c, d. […] During the 10 minute incubation (R.T., with shaking) there is a competition of antibody binding for the doxorubicin conjugate in the well and the analyte in solution. […]

[5] = test system: antibody as produced in Examples 7 and 8 with immunogen of Examples 3a, 3b, 4a & b; experiment: Competitive immunoassay cross-reactivity, antibodies of Examples 7 and 8 taken together; type: binding, mouse; settings: antibodies of Examples 7 and 8, immunogens of Examples 3a
Method: The present invention relates to novel antibodies and monoclonal antibodies to doxorubicin. The antisera of the invention can be conveniently produced by immunizing host animals with the immunogens of this invention. Suitable host animals include rodents, such as, for example, mice, rats, rabbits, guinea pigs and the like, or higher mammals such as goats, sheep, horses and the like. […] Doxorubicin concentrations were measured by an indirect competitive Enzyme-Linked Immunosorbent Assay (ELISA) method This method for measuring doxorubicin concentrations was performed with the microtiter plates that were sensitized with doxorubicin [1]-BSA described in Examples 9b, c, d. […] The assay was performed by incubating 50 μL of the analytes to be measured with 50 μL of antibody (produced in Examples 7 and 8 with immunogens of Examples 3a, 3b, 4a and 4b) diluted to a titer determined in Example 10a. […] Following the incubation for color development, 50 μL of stop solution (1.5% sodium fluoride in di H2O) was added to each well to stop the color development and after 10 seconds of shaking the absorbance was determined at 650 nm with a 96-well plate reader. The amount of antibody in a well was proportional to the absorbance measured and inversely proportional to the amount of doxorubicin in the sample. […]

[6] = plate sensitized as in Example 9b (doxorubicin [5]-BSA 3:1)
[7] = plate sensitized as in Example 9c (doxorubicin [5]-BSA 1:1)
[8] = plate sensitized as in Example 9d (doxorubicin [5]-BSA 1:1 thiol capped)

Compound: COc1cccc2c1C(=O)c1c(O)c3c(c(O)c1C2=O)C[C@@](O)(C(=O)CO)C[C@@H]3O[C@H]1C[C@H](N)[C@H](O)[C@H](C)O1.Cl [doxorubicin]
- % cross-reactivity [1, 6]: 100%
- % cross-reactivity [1, 7]: 100%
- % cross-reactivity [1, 8]: 100%
- % cross-reactivity [2, 6]: 100%
- % cross-reactivity [2, 7]: 100%
- % cross-reactivity [3, 6]: 100%
- % cross-reactivity [3, 7]: 100%
- % cross-reactivity [3, 8]: 100%
- % cross-reactivity [4, 6]: 100%
- % cross-reactivity [4, 7]: 100%
- % cross-reactivity [4, 8]: 100%

Compound: COc1cccc2c1C(=O)c1c(O)c3c(c(O)c1C2=O)C[C@@](O)(C(=O)CO)C[C@@H]3O [doxorubicin-aglycone, doxorubicin aglycone]
- % cross-reactivity [1, 6]: 1.5%
- % cross-reactivity [1, 7]: 3.9%
- % cross-reactivity [1, 8]: 3.0%
- percent cross-reactivity relative to doxorubicin [5]: less than or equal to 10%
- % cross-reactivity [2, 6]: 10.6%
- % cross-reactivity [2, 7]: 12.9%
- % cross-reactivity [3, 6]: 8.6%
- % cross-reactivity [4, 6]: 5.7%
- % cross-reactivity [4, 7]: 10.0%
- % cross-reactivity [4, 8]: 8.8%
